Here are results for 11 compounds from patent publication US9428665B2, “Photopolymerizable inkjet ink, ink cartridge, and inkjet recording device” (Ricoh Company, Ltd., priority 2011, dated 2016).

Like-named read-outs stand apart in the source and are kept apart here.

For data set [1] the following is noted: in vivo; cited from earlier work.
The test system of a further data set is female mice. The data set is described as follows: Skin sensitization test based on the LLNA (Local Lymph Node Assay), SI value by BrdU intake. The format is in vivo. The settings on record: test substance 50.0 w/v % in acetone:olive oil 4:1, 25 μL/auricle once/day × 3 days, SI less than 3 = negative for skin sensitization. From the text:
Here, the photopolymerizable monomer negative for skin sensitization refers to at least one of the following compounds (1) to (3): • (1) a compound having a Stimulation Index (SI value) of less than 3, where the Stimulation Index indicates the extent of sensitization as measured by a skin sensitization test based on the LLNA (Local Lymph Node Assay); • (2) a compound evaluated as “negative for skin sensitization” or “no skin sensitization” in its MSDS (Material Safety Data Sheet); and • (3) a compound evaluated as “negative for skin sensitization” or “without skin sensitization” in literature [e.g., Contact Dermatitis 8 223-235 (1982)]. […]
According to the skin sensitization test based on the LLNA (Local Lymph Node Assay), the SI value was measured in the below described manner. […]
Before treated with the test substances, the positive control or the vehicle control, female mice were acclimated for 8 days including 6-day quarantine. […] Based on the body weights measured 2 days before the initiation of sensitization, they were categorized into 2 groups (4 mice/group) by the body weight stratified random sampling method so that the body weight of each individual was within ±20% of the average body weight of all the individuals. […]

For data set [2] the following is noted: test method: the maximization method; cited from earlier work.
The conditions of data set [3]: cited from earlier work.
Setting [4] is: test method: OECD test guideline 406.

Take `C=CC(=O)NCCO` [HEAA, Hydroxyethylacryl amide]: the “skin sensitization evaluation (MSDS or literature)” value in data set [1] was “none”.

For `CCc1cc(CC)c2sc3ccccc3c(=O)c2c1` [2,4-Diethylthioxanthone], the “SI value (Stimulation Index)” value with female mice was 1.4.

Take `C=C(C)C(=O)OC(C)(C)C` [LIGHT ESTER TB, t-Butyl methacrylate]: the “skin sensitization evaluated in the literature” value in data set [2] is “negative”.

With `CSc1ccc(C(=O)C(C)(C)N2CCOCC2)cc1` [Example C2, 2-Methyl-1-[4-(methylthio)phenyl]-2-morpholinopropan-1-one], in data set [3] (setting [4]), the “skin sensitization evaluated in the MSDS” value was “none”.

For `CCCCC(CC)COC(=O)c1ccc(N(C)C)cc1` (centres unmarked) [2-ethylhexyl p-dimethylaminobenzoate], the “skin sensitization evaluated in the MSDS” value in data set [3] (setting [4]) was “none”.

`CCC(Cc1ccccc1)(C(=O)c1ccc(N2CCOCC2)cc1)N(C)C` (centres unmarked) [Example C3, 2-Benzyl-2-dimethylamino-1-(4-morpholinophenyl)butanone-1]: in data set [3] (setting [4]), the “skin sensitization evaluated in the MSDS” value was “none”.

`C=C(C)C(=O)OCCCCCC` [HEXYL METHACRYLATE, n-Hexyl methacrylate]: the “skin sensitization evaluated in the literature” value in data set [2] was “negative”.

`C=COCCOCCOCCOC=C` [Example B1, Triethylene glycol divinyl ether]: in data set [3] (setting [4]), the “skin sensitization evaluated in the MSDS” value is “negative”.

On to `C=C(C)C(=O)OCCCCC` [n-AMYL METHACRYLATE, n-Pentyl methacrylate], for which the “skin sensitization evaluated in the literature” value in data set [2] is on record as “negative”.

For the compound `CCC(Cc1ccc(C)cc1)(C(=O)c1ccc(N2CCOCC2)cc1)N(C)C` (centres unmarked) [Example C1, 2-Dimethylamino-2-(4-methylbenzyl)-1-(4-morpholin-4-yl-phenyl) butan-1-one], the “skin sensitization evaluated in the MSDS” value in data set [3] (setting [4]) is listed as “none”.

Turning to “Caprolactone-modified dipentaerythritol hexaacrylate [DPCA-60]”, in data set [3] (in vivo), the “skin sensitization evaluated in the MSDS” value is “negative”.
